The nature of series [1]: in vivo. The settings on record: mouse, iv.
In a further series the test system is humans. Description: administration to humans, tolerability. As to conditions: in vivo. Also on record: species or system human.
A short description of series [2]: in vivo. The settings on record: dog, iv.
The conditions of series [3]: accepted value; cited from earlier work.
A further series relates to diabetic retinopathy. As to conditions: humans, mainly in the 1980s; cited from earlier work.

On to `O=S(=O)([O-])CCSSCCS(=O)(=O)[O-].[Na+].[Na+]`, for which the NOAEL in “in vivo [1]” and in the series “in vivo [2]” was above 3750 mg/kg in each case. In the series with humans, the “dose administered with no adverse effects” value is on record as “exceeding 15 g/m^2”.

For the molecule `[Cl-].[Na+]` [common table salt], in series [3], the “oral LD50” value is recorded as 3750 mg/kg.

In the case of `O=C1NC(=O)[C@@]2(CCOc3ccc(F)cc32)N1` [sorbinil], in the series on diabetic retinopathy, the “efficacy in slowing progress of diabetic retinopathy and other diabetic complications” value was “some efficacy”; the “toxicity / tolerability in patients” value is recorded as “highly toxic”.

Values taken from US6274622A, “Method of treating diabetic ophthalmopathy” (priority 1999, dated 2001).
